Measured values reported in the supplement of paper PMC10307832.

What was measured:
Assay in all cases: relative viability (nuclei count vs DMSO), 5 days (fraction); higher = more cells survive
[1] = test system: COR-L 105
In short: (§1)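 Lung cancer cell lines, seeded in 1536-well plates, were treated the following day by pin tool with a single drug or with five library-drug doses (not always all listed) in √10 steps on top of a fixed anchor-drug dose. Cells were fixed and nuclei stained in one step after 5 days, and nuclei were counted. Relative viability is the nuclei count for treated wells divided by that for vehicle wells, reported as medians of duplicate plates.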

[2] = test system: COR-L23
In short: as §1

[3] = test system: EPLC-272H
In short: as §1

[4] = test system: HARA
In short: as §1

[5] = test system: HCC-15
In short: as §1

[6] = test system: HCC-44
In short: as §1

[7] = test system: HCC-827
In short: as §1

[8] = test system: LCLC-103H
In short: as §1

[9] = test system: NCI-H1395
In short: as §1

[10] = test system: NCI-H1437
In short: as §1

[11] = test system: NCI-H1792
In short: as §1

[12] = test system: NCI-H1944
In short: as §1

[13] = test system: NCI-H1975
In short: as §1

[14] = test system: NCI-H2023
In short: as §1

[15] = test system: NCI-H2085
In short: as §1

[16] = test system: NCI-H2405
In short: as §1

[17] = test system: NCI-H358
In short: as §1

[18] = test system: NCI-H661
In short: as §1

[19] = test system: NCI-H727
In short: as §1

[20] = test system: SK-LU-1
In short: as §1

[21] = test system: UMC-11
In short: as §1

[22] = test system: HCC-366
In short: as §1

[23] = test system: HCC-78
In short: as §1

## Cc1cnc(-c2cnc(NCCNc3ccc(C#N)cn3)nc2-c2ccc(Cl)cc2Cl)[nH]1 + CCNC(=O)c1noc(-c2cc(C(C)C)c(O)cc2O)c1-c1ccc(CN2CCOCC2)cc1 [Luminespib] (partner 0.01 µM)
[1]; first compound 0.08 µM
  relative viability: 0.846
[1]; first compound 0.253 µM
  relative viability: 0.648
[1]; first compound 0.8 µM
  relative viability: 0.696
[1]; first compound 2.53 µM
  relative viability: 0.654
[2]; first compound 0.08 µM
  relative viability: 0.784
[2]; first compound 0.253 µM
  relative viability: 0.578
[2]; first compound 0.8 µM
  relative viability: 0.659
[2]; first compound 2.53 µM
  relative viability: 0.621
[3]; first compound 0.08 µM
  relative viability: 0.308
[3]; first compound 0.253 µM
  relative viability: 0.313
[3]; first compound 0.8 µM
  relative viability: 0.209
[3]; first compound 2.53 µM
  relative viability: 0.192
[4]; first compound 0.08 µM
  relative viability: 0.896
[4]; first compound 0.253 µM
  relative viability: 0.568
[4]; first compound 0.8 µM
  relative viability: 0.665
[4]; first compound 2.53 µM
  relative viability: 0.709
[5]; first compound 0.08 µM
  relative viability: 0.303
[5]; first compound 0.253 µM
  relative viability: 0.217
[5]; first compound 0.8 µM
  relative viability: 0.318
[5]; first compound 2.53 µM
  relative viability: 0.398
[6]; first compound 0.08 µM
  relative viability: 1.21
[6]; first compound 0.253 µM
  relative viability: 0.968
[6]; first compound 0.8 µM
  relative viability: 1.14
[6]; first compound 2.53 µM
  relative viability: 1.24
[7]; first compound 0.08 µM
  relative viability: 0.719
[7]; first compound 0.8 µM
  relative viability: 0.752
[7]; first compound 2.53 µM
  relative viability: 0.564
[8]; first compound 0.08 µM
  relative viability: 1.08
[8]; first compound 0.253 µM
  relative viability: 0.865
[8]; first compound 0.8 µM
  relative viability: 0.933
[8]; first compound 2.53 µM
  relative viability: 0.826
[9]; first compound 0.08 µM
  relative viability: 0.627
[9]; first compound 0.253 µM
  relative viability: 0.708
[9]; first compound 0.8 µM
  relative viability: 0.65
[9]; first compound 2.53 µM
  relative viability: 0.677
[10]; first compound 0.08 µM
  relative viability: 1.06
[10]; first compound 0.253 µM
  relative viability: 1.06
[10]; first compound 0.8 µM
  relative viability: 1.14
[10]; first compound 2.53 µM
  relative viability: 1.14
[11]; first compound 0.08 µM
  relative viability: 0.668
[11]; first compound 0.253 µM
  relative viability: 0.432
[11]; first compound 0.8 µM
  relative viability: 0.493
[11]; first compound 2.53 µM
  relative viability: 0.392
[12]; first compound 0.08 µM
  relative viability: 0.831
[12]; first compound 0.8 µM
  relative viability: 0.861
[12]; first compound 2.53 µM
  relative viability: 0.678
[13]; first compound 0.08 µM
  relative viability: 0.21
[13]; first compound 0.253 µM
  relative viability: 0.252
[13]; first compound 0.8 µM
  relative viability: 0.191
[13]; first compound 2.53 µM
  relative viability: 0.189
[14]; first compound 0.08 µM
  relative viability: 0.872
[14]; first compound 0.253 µM
  relative viability: 0.751
[14]; first compound 0.8 µM
  relative viability: 0.863
[14]; first compound 2.53 µM
  relative viability: 0.774
[15]; first compound 0.08 µM
  relative viability: 0.456
[15]; first compound 0.253 µM
  relative viability: 0.486
[15]; first compound 0.8 µM
  relative viability: 0.462
[15]; first compound 2.53 µM
  relative viability: 0.339
[16]; first compound 0.08 µM
  relative viability: 0.763
[16]; first compound 0.253 µM
  relative viability: 0.552
[16]; first compound 0.8 µM
  relative viability: 0.822
[16]; first compound 2.53 µM
  relative viability: 0.574
[17]; first compound 0.08 µM
  relative viability: 0.24
[17]; first compound 0.253 µM
  relative viability: 0.317
[17]; first compound 0.8 µM
  relative viability: 0.283
[17]; first compound 2.53 µM
  relative viability: 0.0322
[18]; first compound 0.08 µM
  relative viability: 0.889
[18]; first compound 0.253 µM
  relative viability: 0.881
[18]; first compound 0.8 µM
  relative viability: 0.904
[18]; first compound 2.53 µM
  relative viability: 0.829
[19]; first compound 0.08 µM
  relative viability: 0.272
[19]; first compound 0.253 µM
  relative viability: 0.345
[19]; first compound 0.8 µM
  relative viability: 0.362
[19]; first compound 2.53 µM
  relative viability: 0.337
[20]; first compound 0.08 µM
  relative viability: 0.196
[20]; first compound 0.253 µM
  relative viability: 0.238
[20]; first compound 0.8 µM
  relative viability: 0.186
[20]; first compound 2.53 µM
  relative viability: 0.213
[21]; first compound 0.08 µM
  relative viability: 1.02
[21]; first compound 0.253 µM
  relative viability: 0.934
[21]; first compound 0.8 µM
  relative viability: 1.03
[21]; first compound 2.53 µM
  relative viability: 0.995

## Cc1cnc(-c2cnc(NCCNc3ccc(C#N)cn3)nc2-c2ccc(Cl)cc2Cl)[nH]1 + Cc1nc(Nc2ncc(C(=O)Nc3c(C)cccc3Cl)s2)cc(N2CCN(CCO)CC2)n1 [Dasatinib] (partner 0.075 µM)
[1]; first compound 0.08 µM
  relative viability: 0.354
[1]; first compound 0.253 µM
  relative viability: 0.344
[1]; first compound 0.8 µM
  relative viability: 0.282
[1]; first compound 2.53 µM
  relative viability: 0.208
[2]; first compound 0.253 µM
  relative viability: 0.419
[2]; first compound 0.8 µM
  relative viability: 0.51
[2]; first compound 2.53 µM
  relative viability: 0.5
[3]; first compound 0.253 µM
  relative viability: 0.374
[3]; first compound 0.8 µM
  relative viability: 0.409
[3]; first compound 2.53 µM
  relative viability: 0.397
[4]; first compound 0.08 µM
  relative viability: 0.223
[4]; first compound 0.253 µM
  relative viability: 0.259
[4]; first compound 0.8 µM
  relative viability: 0.343
[4]; first compound 2.53 µM
  relative viability: 0.244
[5]; first compound 0.08 µM
  relative viability: 0.687
[5]; first compound 0.253 µM
  relative viability: 0.509
[5]; first compound 0.8 µM
  relative viability: 0.598
[5]; first compound 2.53 µM
  relative viability: 0.625
[22]; first compound 0.08 µM
  relative viability: 0.67
[22]; first compound 0.253 µM
  relative viability: 0.545
[22]; first compound 0.8 µM
  relative viability: 0.618
[22]; first compound 2.53 µM
  relative viability: 0.595
[23]; first compound 0.08 µM
  relative viability: 0.434
[23]; first compound 0.253 µM
  relative viability: 0.364
[23]; first compound 0.8 µM
  relative viability: 0.41
[23]; first compound 2.53 µM
  relative viability: 0.371
[7]; first compound 0.08 µM
  relative viability: 0.371
[7]; first compound 0.8 µM
  relative viability: 0.291
[7]; first compound 2.53 µM
  relative viability: 0.318
[8]; first compound 0.08 µM
  relative viability: 0.404
[8]; first compound 0.253 µM
  relative viability: 0.442
[8]; first compound 0.8 µM
  relative viability: 0.434
[8]; first compound 2.53 µM
  relative viability: 0.433
[9]; first compound 0.08 µM
  relative viability: 0.405
[9]; first compound 0.253 µM
  relative viability: 0.401
[9]; first compound 0.8 µM
  relative viability: 0.443
[9]; first compound 2.53 µM
  relative viability: 0.432
[10]; first compound 0.08 µM
  relative viability: 0.425
[10]; first compound 0.253 µM
  relative viability: 0.369
[10]; first compound 0.8 µM
  relative viability: 0.309
[10]; first compound 2.53 µM
  relative viability: 0.278
[11]; first compound 0.08 µM
  relative viability: 0.998
[11]; first compound 0.253 µM
  relative viability: 0.777
[11]; first compound 0.8 µM
  relative viability: 0.772
[11]; first compound 2.53 µM
  relative viability: 0.762
[12]; first compound 0.08 µM
  relative viability: 0.24
[12]; first compound 0.8 µM
  relative viability: 0.251
[12]; first compound 2.53 µM
  relative viability: 0.316
[13]; first compound 0.08 µM
  relative viability: 0.427
[13]; first compound 0.253 µM
  relative viability: 0.336
[13]; first compound 0.8 µM
  relative viability: 0.282
[13]; first compound 2.53 µM
  relative viability: 0.241
[14]; first compound 0.08 µM
  relative viability: 0.811
[14]; first compound 0.253 µM
  relative viability: 0.532
[14]; first compound 0.8 µM
  relative viability: 0.599
[14]; first compound 2.53 µM
  relative viability: 0.636
[15]; first compound 0.08 µM
  relative viability: 0.247
[15]; first compound 0.253 µM
  relative viability: 0.239
[15]; first compound 0.8 µM
  relative viability: 0.21
[15]; first compound 2.53 µM
  relative viability: 0.239
[16]; first compound 0.08 µM
  relative viability: 0.215
[16]; first compound 0.253 µM
  relative viability: 0.223
[16]; first compound 0.8 µM
  relative viability: 0.223
[16]; first compound 2.53 µM
  relative viability: 0.195
[17]; first compound 0.08 µM
  relative viability: 0.157
[17]; first compound 0.253 µM
  relative viability: 0.17
[17]; first compound 0.8 µM
  relative viability: 0.207
[17]; first compound 2.53 µM
  relative viability: 0.189
[18]; first compound 0.08 µM
  relative viability: 1.04
[18]; first compound 0.253 µM
  relative viability: 0.778
[18]; first compound 0.8 µM
  relative viability: 0.845
[18]; first compound 2.53 µM
  relative viability: 0.794
[19]; first compound 0.08 µM
  relative viability: 0.452
[19]; first compound 0.253 µM
  relative viability: 0.358
[19]; first compound 0.8 µM
  relative viability: 0.339
[19]; first compound 2.53 µM
  relative viability: 0.54
[20]; first compound 0.08 µM
  relative viability: 0.185
[20]; first compound 0.253 µM
  relative viability: 0.185
[20]; first compound 0.8 µM
  relative viability: 0.18
[20]; first compound 2.53 µM
  relative viability: 0.226
[21]; first compound 0.08 µM
  relative viability: 0.515
[21]; first compound 0.253 µM
  relative viability: 0.542
[21]; first compound 0.8 µM
  relative viability: 0.498
[21]; first compound 2.53 µM
  relative viability: 0.527
